BindingDB's records for doi:10.1021/jm991008q (1999)

Assays:
[1] = target: Ornithine carbamoyltransferase (Streptococcus/Enterococcus faecalis); experiment: Binding affinity against ornithine transcarbamoylase (OTC) produced by Streptococcus faecalis The buffer taken for this study is 50 mM maleate, 0.5 mM EDTA at pH 6.0.
[2] = target: Ornithine carbamoyltransferase (Streptococcus/Enterococcus faecalis); experiment: Binding affinity against ornithine transcarbamoylase (OTC) produced by Streptococcus faecalis The buffer taken for this study is 50 mM Tris.HCl, 0.5 mM EDTA at pH 7.0.
[3] = target: Ornithine carbamoyltransferase (Streptococcus/Enterococcus faecalis); experiment: Binding affinity against ornithine transcarbamoylase (OTC) produced by Streptococcus faecalis The buffer taken for this study is 50 mM Tris.HCl, 0.5 mM EDTA at pH 8.0.

Ki [1] [µM] | Ki [2] [µM] | Ki [3] [µM] | Structure (SMILES)
660 | 750 | 1900 | N[C@@H](CCCNCP(=O)(O)CP(=O)(O)O)C(=O)O [2-Amino-5-[(hydroxy-phosphonomethyl-phosphinoylmethyl)-amino]-pentanoic acid]
> 20000 | 2300 | 3200 | N[C@@H](CCNCP(=O)(O)CP(=O)(O)O)C(=O)O [(2S)-2-ammonio-4-[({[(hydroxyphosphinato)methyl]phosphinato}methyl)ammonio]butanoate]

Structure (SMILES) | Ki [1] [µM] | Ki [2] [µM] | Ki [3] [µM]
CC(C)(C)OC(=O)N[C@@H](CCCNCP(=O)(O)CP(=O)(O)O)C(=O)O [(2S)-2-[(tert-butoxycarbonyl)amino]-5-[({[(hydroxyphosphinato)methyl]phosphinato}methyl)ammonio]pentanoate] | > 20000 | 1000 | 2000
